Consider four molecules from US12102615B2 (THE TEXAS A&M UNIVERSITY SYSTEM, priority 2018, dated 2024).

pKd: −log10 of the molar value. Values after ≈ are worked out from the molar mass of the structure shown. Values joined by “and” are separate entries in the source; they are usually repeats but may differ in a detail not shown here. Equal values may be shown once. Read-outs that look alike come from different tables or passages of the source. Numbered stars: 1 amine (or outer) side, 2 acyl side, 3 side chain; on linkers, the order of the positions; unused ones are H or OH. Square brackets hold non-standard residues; d marks the D form. Peptide text beside a SMILES is read from it. dTyr(βR-OH) = N[C@@H](C(=O)O)[C@H](O)c1ccc(O)cc1; X1 = CCCCCCCCCCCCNCC[C@H](CC(=O)[*:2])N[*:1]; Asn(3S-OH) = NC(=O)[C@@H](O)[C@H](N)C(=O)O; dDab = NCC[C@@H](N)C(=O)O

Assay [1] has as its system Trichophyton rubrum 28659. The assay is described as follows: MIC susceptibility testing (CLSI M38-A2). Type of assay: cell-based. The note with it: Trichophyton rubrum, 28659, 96 h, read-out: Voriconazole MIC. The protocol: (§1) Minimum inhibitory concentration (MIC) susceptibility testing was performed according to the CLSI M27-A3 and M38-A2 standards for the susceptibility testing of yeasts and filamentous fungi, respectively. Incubation temperature was at 35° C. and the inoculum size was 0.5-2.5×10^3 colony-forming units (CFU)/mL and 0.4-5×10^4 conidia/mL for yeasts and filamentous fungi, respectively. Inoculum concentration for dermatophytes was 1-3×10^3 conidia/mL. RPMI was used throughout as the growth medium and Cryptococcus strains were tested in YNB. […] Voriconazole MICs were recorded at 80% inhibition after 96 hours of incubation for dermatophytes. S. cerevisiae deletion mutants were obtained from the commercially available BY4741 deletion library (Thermo Scientific). Susceptibility testing was carried out on inoculum size of 0.5-1×10^4 cells/ml in YPD media at 30° C. and MICs recorded after 48 and 60 hours.

Assay [2] relates to Trichophyton rubrum 11199. Nature of the assay: MIC susceptibility testing (CLSI M38-A2). In kind it is cell-based. The note with it: Trichophyton rubrum, 11199, 96 h, read-out: Voriconazole MIC. The procedure: as §1
Assay [3] has as its system Aspergillus fumigatus 28434. The assay is described as follows: MIC susceptibility testing (CLSI M38-A2). Particulars: Aspergillus fumigatus, 28434, 48 h, read-out: Voriconazole MIC. In kind it is cell-based. The procedure:
as §1

For the next assay, the system named is Aspergillus flavus 28517. Nature of the assay: MIC susceptibility testing (CLSI M38-A2). The note with it: Aspergillus flavus, 28517, 48 h, read-out: Voriconazole MIC. Type of assay: cell-based. The protocol:
as §1

In assay [4] the test system is Mucor circinelloides 19445. Nature of the assay: MIC susceptibility testing (CLSI M38-A2). In kind it is cell-based. Particulars: Mucor circinelloides, 19445, 24 h, read-out: Voriconazole MIC. The procedure:
as §1

The subject of another assay is Mucor fragdis 27782. The assay is described as follows: MIC susceptibility testing (CLSI M38-A2). In kind it is cell-based. The note with it: Mucor, 27782, 24 h, read-out: Voriconazole MIC. The protocol:
as §1

Assay [5] deals with Aspergillus fumigatus 28435. The assay is described as follows: MIC susceptibility testing (CLSI M38-A2). In kind it is cell-based. The note with it: Aspergillus fumigatus, 28435, 48 h, read-out: Voriconazole MIC. The procedure:
as §1

In another assay the test system is Rhizopus oryzae 28403. The assay is described as follows: MIC susceptibility testing (CLSI M38-A2). Particulars: Rhizopus arrhizus, 28403, 24 h, read-out: Voriconazole MIC. Type of assay: cell-based. The protocol:
as §1

Assay [6] relates to Trichophyton rubrum 28658. The assay is described as follows: MIC susceptibility testing (CLSI M38-A2). In kind it is cell-based. The note with it: Trichophyton rubrum, 28658, 96 h, read-out: Voriconazole MIC. The procedure:
as §1

The next assay concerns Fusarium solani 18749. The assay is described as follows: MIC susceptibility testing (CLSI M38-A2). Type of assay: cell-based. Particulars: Fusarium solani, 18749, 48 h, read-out: Voriconazole MIC. The protocol:
as §1

In assay [7] the test system is Rhizopus microsporus 28506. Nature of the assay: MIC susceptibility testing (CLSI M38-A2). Particulars: Rhizopus microsporus, 28506, 24 h, read-out: Voriconazole MIC. Type of assay: cell-based. The protocol:
as §1

In a further assay the test system is Fusarium solani 28386. The assay is described as follows: MIC susceptibility testing (CLSI M38-A2). Type of assay: cell-based. Particulars: Fusarium solani, 28386, 48 h, read-out: Voriconazole MIC. The protocol:
as §1

Assay [8] deals with Trichophyton mentagrophytes 28641. Nature of the assay: MIC susceptibility testing (CLSI M38-A2). Type of assay: cell-based. Particulars: Trichophyton mentagrophytes, 28641, 96 h, read-out: Voriconazole MIC. The protocol: as §1
A further assay relates to Aspergillus flavus 28455. The assay is described as follows: MIC susceptibility testing (CLSI M38-A2). In kind it is cell-based. The note with it: Aspergillus flavus, 28455, 48 h, read-out: Voriconazole MIC. The procedure:
as §1

The subject of assay [9] is Rhizopus microsporus 27785. The assay is described as follows: MIC susceptibility testing (CLSI M38-A2). In kind it is cell-based. The note with it: Rhizopus microsporus, 27785, 24 h, read-out: Voriconazole MIC. The protocol: as §1
A further assay relates to Fusarium oxysporum 27718. The assay is described as follows: MIC susceptibility testing (CLSI M38-A2). Type of assay: cell-based. Particulars: Fusarium oxysporum, 27718, 48 h, read-out: Voriconazole MIC. The procedure:
as §1

The subject of assay [10] is Trichophyton mentagrophytes 10207. The assay is described as follows: MIC susceptibility testing (CLSI M38-A2). In kind it is cell-based. Particulars: Trichophyton mentagrophytes, 10207, 96 h, read-out: Voriconazole MIC. The procedure:
as §1

In the next assay the test system is Mucor racemosus 27784. The assay is described as follows: MIC susceptibility testing (CLSI M38-A2). In kind it is cell-based. Particulars: Mucor racemosus, 27784, 24 h, read-out: Voriconazole MIC. The procedure: as §1
Assay [11] has as its system Aspergillus fumigatus 28436. Nature of the assay: MIC susceptibility testing (CLSI M38-A2). Type of assay: cell-based. Particulars: Aspergillus fumigatus, 28436, 48 h, read-out: Voriconazole MIC. The procedure: as §1
In another assay the test system is Aspergillus flavus 28445. The assay is described as follows: MIC susceptibility testing (CLSI M38-A2). In kind it is cell-based. The note with it: Aspergillus flavus, 28445, 48 h, read-out: Voriconazole MIC. The protocol:
as §1

Assay [12] concerns Trichophyton mentagrophytes 28556. The assay is described as follows: MIC susceptibility testing (CLSI M38-A2). Type of assay: cell-based. Particulars: Trichophyton mentagrophytes, 28556, 96 h, read-out: Voriconazole MIC. The protocol: as §1
Assay [13] addresses T1, F-actin (Oryctolagus cuniculus, UniProt P68135). The arrangement: Purified rabbit skeletal muscle filamentous actin (AKF99); purchased Cytoskeleton Inc. (Denver, CO) AKF99; host or cells: rabbit skeletal muscle. Particulars: co-sedimentation assay, published previously (Ravichandran et al.), read-out: Kd, binding to actin; cited from earlier work.
For assay [14], the target named is T1, F-actin. Nature of the assay: Pyrene labeled actin depolymerization assay. The arrangement: purchased Cytoskeleton, Inc. (Denver, CO) BK003. Type of assay: biochemical. The note with it: 5 μM; for pyrene fluorescent reading following incubation in depolymerization buffer: no drug control at 2,500 AU. The procedure: (§2) Actin polymerization and depolymerization assays were performed using the Actin polymerization biochem kit (#BK003; Cytoskeleton, Inc. Denver, CO) following the manufacturer's instructions with some modifications. Briefly, for the polymerization assay, G-actin stock solution was made at 0.2 mg/mL instead of 0.4 mg/mL. For the depolymerization assay, F-actin stock solution was diluted 9-fold instead of 5-fold. […] The experiments were done in duplicate.

A further assay deals with T2, actin (Oryctolagus cuniculus, UniProt P68135).
T2 construct: purchased Cytoskeleton, Inc. (Denver, CO) BK003
Nature of the assay: Pyrene labeled actin polymerization assay. Type of assay: biochemical. Particulars: 5 μM; approximately one hour after incubation in the polymerization buffer. The procedure: as §2

Assay [15] concerns the target T1, F-actin. The assay is described as follows: Actin co-sedimentation assay. Type of assay: binding, rabbit. The arrangement: Purified rabbit skeletal muscle filamentous actin (AKF99); purchased Cytoskeleton Inc. (Denver, CO) AKF99; host or cells: rabbit skeletal muscle.
Assay [16] relates to S. cerevisiae DGY6 haploid BY4741. In kind it is cell-based. Particulars: Saccharomyces cerevisiae DGY6 haploid BY4741; 24 hours, 35° C. The procedure: (§3) MIC assays were performed in duplicate as previously described following a modified version of the CLSI M27-A3 methods.
(§4) Minimum inhibitory concentration (MIC) susceptibility testing was performed following a modified version, as previously reported, of the CLSI M27-A3 methods for the susceptibility testing of yeasts. Incubation temperature was 35° C. and the inoculum size was 0.5-2.5×10^3 colony-forming units (CFU)/mL for yeasts. MICs were performed to determine the bioactivity of each new OF-Δxyl analogue (Table 3).

The test system of assay [17] is Candida albicans ATCC 3147. Type of assay: cell-based. Particulars: 24 hours, 35° C., listed as dihydrosphingosine. The procedure: as §3, §4
In assay [18] the test system is Candida glabrata ATCC 2001. The assay is described as follows: Minimum inhibitory concentration (MIC) assay, modified CLSI M27-A3. Type of assay: cell-based. The note with it: 24 hours, 35° C. The procedure: as §3, §4

In general, MIC refers to the lowest concentration that inhibits growth of the organism. Consider `C[C@@H](c1ncncc1F)[C@](O)(Cn1cncn1)c1ccc(F)cc1F` [Voriconazole], for which the MIC in [1] is 0.03 mg/L (≈ 0.0859 µM); in assay [2] it was 0.008 mg/L (≈ 0.0229 µM); in assay [3] it was 1 mg/L (≈ 2.86 µM); with Aspergillus flavus 28517, 1 mg/L (≈ 2.86 µM); in assay [4], above 16 mg/L; with Mucor fragdis 27782, above 16 mg/L. For the same molecule, the MIC was 1 mg/L (≈ 2.86 µM) in assay [5]; above 16 mg/L in the assay on Rhizopus oryzae 28403; 0.03 mg/L (≈ 0.0859 µM) in assay [6]; above 16 mg/L in the assay on Fusarium solani 18749; 16 mg/L (≈ 45.8 µM) in assay [7]; above 16 mg/L with Fusarium solani 28386. Also, the MIC in assay [8] is 0.06 mg/L (≈ 0.172 µM); in the assay on Aspergillus flavus 28455 it was 2 mg/L (≈ 5.73 µM); in assay [9], above 16 mg/L; in the assay with Fusarium oxysporum 27718 it was above 16 mg/L; in assay [10] it was 0.25 mg/L (≈ 0.716 µM); with Mucor racemosus 27784, above 16 mg/L. Moreover, the MIC in assay [11] stood at 1 mg/L (≈ 2.86 µM); in the assay on Aspergillus flavus 28445 it was 2 mg/L (≈ 5.73 µM); in assay [12] it was 0.06 mg/L (≈ 0.172 µM).
By pKd is commonly meant the Kd on a negative log10 scale, so that one unit is a factor of ten. Take phalloidin: the pKd on F-actin [13] is ~8.10 and 8.10. At F-actin [14], the “effect on polymerization or depolymerization of actin” value is listed as “completely blocked the depolymerization of F-actin” and the “pyrene fluorescent reading following incubation in depolymerization buffer” value is listed as “above 5,000 AU”. Moreover, at actin, the “pyrene fluorescence reading, plateau in polymerization buffer” value was “around 19,000 AU”.
Regarding `CCCCCCCCCCCCNCC[C@@H]1CC(=O)N[C@H](CO)C(=O)N[C@H]([C@H](O)c2ccc(O)cc2)C(=O)N[C@H](CCN)C(=O)NCC(=O)N[C@@H](CC(N)=O)C(=O)N[C@@H](CO)C(=O)N[C@@H]([C@H](O)C(N)=O)C(=O)N1` [Dodecylamine containing OF-Δxyl analogue] (cyclo(GNS[Asn(3S-OH)][X1][dS][dTyr(βR-OH)][dDab])), the negative logarithm of the Kd (pKd) at F-actin [15] is 5.38. In addition, the “fold lower binding affinity to actin than native compound” value on F-actin [15] (versus native occidiofungin) was around 4 fold. In assay [16], the MIC is above 4 mg/L.
Regarding `CCCCCCCCCCCCCCCC(O)C(CO)NCC[C@@H]1CC(=O)N[C@H](CO)C(=O)N[C@H]([C@H](O)c2ccc(O)cc2)C(=O)N[C@H](CCN)C(=O)NCC(=O)N[C@@H](CC(N)=O)C(=O)N[C@@H](CO)C(=O)N[C@@H]([C@H](O)C(N)=O)C(=O)N1` (mixture of isomers), at F-actin [15], the negative-log Kd (pKd) is 7.60. At F-actin [15] (versus native occidiofungin), the “fold lower saturation of binding ratio than native occidiofungin” value was 13.5 fold. Moreover, the “effect on polymerization or depolymerization of actin” value at F-actin [14] is recorded as “did not interfere with polymerization or depolymerization of actin”. The “pyrene fluorescent reading following incubation in depolymerization buffer” value at F-actin [14] is on record as 2,500 AU. Besides, the “pyrene fluorescence reading, plateau in polymerization buffer” value at actin is listed as ~21,000 AU. Besides, the minimum inhibitory concentration (MIC) in assay [17] was 16 mg/L; in assay [16] it was 2 mg/L; in assay [18], 8 mg/L.
